In this experiment the target is CDK4/cyclinD (Homo sapiens (Human), UniProt P11802). In words: CDK4/CyclinD kinase enzymatic assay (Caliper LabChip). The class given is biochemical. As to conditions: tested as HCl salts, 12-point dose response, at the Km for ATP, three hours. The procedure: Kinase enzymatic reactions were performed in 384-well microplates using a 12-channel Caliper LabChip instrument as a detection device. […] As substrate and product are separated, two peaks of fluorescence are observed. Change in the relative fluorescence intensity of the substrate and product peaks is the parameter measured, reflecting enzyme activity. In the presence of an inhibitor, the ratio between product and substrate is altered. The signal of the product decreases, while the signal of the substrate increases.
Chain of CDK4/cyclinD (P11802 whole entry, species assumed): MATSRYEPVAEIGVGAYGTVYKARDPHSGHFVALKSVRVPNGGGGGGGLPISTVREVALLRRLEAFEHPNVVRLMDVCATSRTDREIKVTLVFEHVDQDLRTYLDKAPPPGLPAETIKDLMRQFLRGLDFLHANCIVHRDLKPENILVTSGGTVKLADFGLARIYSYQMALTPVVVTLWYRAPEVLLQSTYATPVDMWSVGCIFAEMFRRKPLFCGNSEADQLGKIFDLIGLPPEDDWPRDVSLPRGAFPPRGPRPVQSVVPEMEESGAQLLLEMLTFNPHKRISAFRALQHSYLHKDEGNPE
Chain of CDK4/cyclinD (P24385 whole entry partner, species assumed): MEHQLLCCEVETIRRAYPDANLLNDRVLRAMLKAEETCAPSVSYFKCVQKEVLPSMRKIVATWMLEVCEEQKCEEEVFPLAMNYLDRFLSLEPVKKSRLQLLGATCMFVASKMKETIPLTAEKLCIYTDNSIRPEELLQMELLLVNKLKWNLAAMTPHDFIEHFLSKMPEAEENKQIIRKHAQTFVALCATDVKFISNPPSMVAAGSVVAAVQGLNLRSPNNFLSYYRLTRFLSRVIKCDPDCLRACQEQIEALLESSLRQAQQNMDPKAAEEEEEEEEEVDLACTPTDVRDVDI
Potential inhibitor compounds (as HCl salts) were tested using 12-point dose response curves in […] at the Km for ATP. The IC50 of each compound was determined using GraphPad Prism.

As usually defined, the IC50 is the concentration that gives 50% inhibition. For `O=C1NCCn2c1cc1cnc(Nc3ccc(N4CCNCC4)cn3)nc12` [Compound 3], the IC50 came out at 1050 nM.

The values are drawn from patent US10696682B2, “CDK inhibitors” (G1 Therapeutics, Inc., priority 2010, dated 2020).
